Measured values reported in patent US7750049B2, “O-substituted-dibenzyl urea-derivatives as TRPV1 receptor antagonists” (Pharmeste S.R.L., priority 2006, dated 2010).

How the values were obtained:
TRPV1 = biological target: T1, TRPV1 (Rattus norvegicus, UniProt O35433); assay: Ca2+ fluorescence measurements in cultured rat trigeminal ganglia (capsaicin-evoked [Ca2+]i mobilization); type: cell-based; conditions: 30 nM capsaicin, rat trigeminal neuron cells; read-out: IC50 of inhibiting capsaicin-evoked [Ca2+]i mobilization
T1 construct: Ca^2+ Fluorescence Measurements in Cultured Rat Trigeminal Ganglia; endogenous in cells; host or cells: cultured rat trigeminal ganglion neurons (primary culture)
T1 sequence (O35433 whole entry): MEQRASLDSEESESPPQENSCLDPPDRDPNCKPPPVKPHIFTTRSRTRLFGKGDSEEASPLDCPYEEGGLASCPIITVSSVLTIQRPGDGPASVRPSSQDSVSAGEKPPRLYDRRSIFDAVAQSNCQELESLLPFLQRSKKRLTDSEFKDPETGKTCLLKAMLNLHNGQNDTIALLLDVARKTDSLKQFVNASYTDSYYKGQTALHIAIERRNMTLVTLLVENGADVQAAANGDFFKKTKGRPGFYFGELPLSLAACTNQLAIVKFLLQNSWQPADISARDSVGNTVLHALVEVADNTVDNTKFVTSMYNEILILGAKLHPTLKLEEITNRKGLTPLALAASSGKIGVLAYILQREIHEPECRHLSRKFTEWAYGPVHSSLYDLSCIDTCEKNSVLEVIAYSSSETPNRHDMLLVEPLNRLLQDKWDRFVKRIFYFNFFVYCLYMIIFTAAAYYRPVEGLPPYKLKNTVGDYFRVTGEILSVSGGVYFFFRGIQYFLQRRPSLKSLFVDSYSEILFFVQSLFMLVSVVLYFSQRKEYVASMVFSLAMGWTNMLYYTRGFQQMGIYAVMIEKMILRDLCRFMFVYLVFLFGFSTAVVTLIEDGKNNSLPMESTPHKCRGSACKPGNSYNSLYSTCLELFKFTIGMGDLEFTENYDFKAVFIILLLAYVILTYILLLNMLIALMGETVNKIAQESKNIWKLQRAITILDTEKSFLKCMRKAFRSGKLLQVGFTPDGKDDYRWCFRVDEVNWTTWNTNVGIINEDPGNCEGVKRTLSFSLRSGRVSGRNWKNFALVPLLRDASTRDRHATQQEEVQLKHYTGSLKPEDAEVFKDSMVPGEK
Procedure: The calibration curve was determined using a buffer containing Fura-2-AM-ester and definite concentrations of free Ca^2+. This curve was then used to convert the data obtained from F340/F380 ratio to [Ca^2+]i (nM) (Kudo, Y). The effects of pretreatments with compounds 6a-6m on the increase in [Ca^2]i produced by 30 nM capsaicin were studied.
Capsaicin (30 nM) increased [Ca^2+]i in the vast majority (95%) of rat trigeminal neuron cells, which were therefore identified as TRPV1-expressing neurons.

vanilloid TRPV1 receptor = biological target: T2, vanilloid TRPV1 receptor (Rattus norvegicus, UniProt O35433); assay: [3H]RTX radioligand binding assay in rat spinal cord membranes; conditions: displacement of [3H]RTX (0.4 nM), 37° C., 60 min
T2 construct: the spinal cord was removed and disrupted using a Polytron tissue homogenizer; from tissue; host or cells: spinal cord of male Sprague-Dawley rats (membranes)
T2 sequence (O35433 whole entry): as above
Procedure: Male Sprague-Dawley rats with body weight between 250 to 350 g were used. For binding assays the rats were decapitated under anesthesia and the spinal cord was removed and disrupted using a Polytron tissue homogenizer in ice cold buffer containing 5 mM KCl, 5.8 mM NaCl, 0.75 mM CaCl2, 2 mM MgCl2, 320 mM sucrose, 10 mM Hepes, pH 8.6 (Szallasi and Blunberg, 1992; 1993). In competition experiments, the membranes were incubated at 37° C. for 60 min with [^3H]RTX (0.4 nM) and with increasing concentrations of test compounds in the range from 0.1 nM to 3 μM. Non-specific binding was evaluated in the presence of 1 μM RTX. Saturation and competition studies were analyzed with the Ligand program (Bradford, 1976; Munson and Rodbard, 1980).
Compounds 6a-6m displaced [^3H]RTX from its binding site in rat spinal cord membranes at low concentrations, as indicated by the Ki values reported in Table 1.

[1] = Cytotoxicity on Hep G2 cells; type: cell-based; conditions: human
Procedure: (§1) LogD Values at pH=7.0 were calculated in silico, while the in vitro tests analysed: • metabolic stability in cryopreserved human hepatocytes; • cytotoxicity on Hep G2 cells; • cassette pharmacokinetics in rat.
The cells were cultured for 3 days, trypsinized and re-suspended in 20 ml of culture medium. The cells were then counted and diluted to obtain a final concentration suitable for seeding 40.000 cells/well in 96-well cell culture plates (200 μl/well).
The cells were seeded in columns 1 to 11 (column 12 contained medium without cells), then placed for 16-24 hours at 37° C. with 5% of CO2.

[2] = tested on: capsaicin-induced secondary allodynia; assay: Capsaicin-induced secondary allodynia in rat; type: in vivo; conditions: 30 μmol/kg p.o., 2 hours prior to capsaicin, 90 min after capsaicin challenge
Procedure: Capsaicin (5 nmols/50 μl/paw) was injected in the plantar surface of the glabrous skin of the right paw of rats anesthetized with diethyl ether (Chaplan et al., 1994). Compounds 6c and 6d were orally administrated 2 hours prior to capsaicin injection. Tactile allodynia was evaluated 90 min after capsaicin challenge. In a more extended study, compounds 6c and 6d were tested against capsaicin-induced secondary allodynia in rats.

[3] = Preliminary cassette pharmacokinetic study in catheterized conscious rats; type: in vivo; conditions: plasma; rat, oral, cassette dosing; read-out: Pharmacokinetics in Rat Oral t1/2
Procedure: as §1
Compounds were administered together to rats. The compounds were stored at −20° C. when not used. The formulation, route of administration, plasma samples identification and pharmacokinetic analysis were performed according to standard protocols (Raynaud, F I et al, 2004; Manitpisitkul, P. et al., 2004; Singh S. et al., 2006).

[4] = value from Ref. 8 (Rami et al. 2006); cited from earlier work

Row | SMILES | IC50 (TRPV1) [nM] | Ki (vanilloid TRPV1 receptor) [nM] | also measured
1 | COc1cc(CNC(=O)NCc2ccc(C(F)(F)F)cc2)c(Cl)cc1OCC(O)CO (racemic) [Compound 6c, 1-[4-(2,3-Dihydroxypropoxy)-2-chloro-5-methoxybenzyl]-3-[4-(trifluoromethyl)-benzyl]urea] | 10.2 | 60 | IC50 [1]: 52000 nM; % of inhibition of the pro-allodinic effect of capsaicin [2]: 53.1%; half-life [3]: 1.3 h
2 | COc1cc(CNC(=O)NCc2ccc(C(F)(F)F)cc2)c(Br)cc1OCC(O)CO (racemic) [Compound 6d, 1-[4-(2,3-Dihydroxypropoxy)-2-bromo-5-methoxybenzyl]-3-[4-(trifluoromethyl)-benzyl]urea] | 80 | 86 | IC50 [1]: 70000 nM; % of inhibition of the pro-allodinic effect of capsaicin [2]: 47.9%; half-life [3]: 1.08 h
3 | COc1cc(CNC(=O)NCc2ccc(C(F)(F)F)cc2)c(Cl)cc1OC[C@H](O)CO [(R)-(−)6c, 1-[4-((R)-(−)-2,3-dihydroxypropoxy)-2-chloro-5-methoxybenzyl]-3-[4-(trifluoromethyl)-benzyl]urea] | 7 |  | half-life [3]: 7.7 h
4 | COc1cc(CNC(=O)NCc2ccc(C(F)(F)F)cc2)c(Br)cc1OC[C@H](O)CO [(R)-(−)6d, 1-[4-((R)-(−)-2,3-dihydroxypropoxy)-2-bromo-5-methoxybenzyl]-3-[4-(trifluoromethyl)-benzyl]urea] | 53 |  | half-life [3]: 4.43 h
5 | COc1cc(CNC(=O)NCc2ccc(C(F)(F)F)cc2)c(Cl)cc1OC[C@@H](O)CO [(S)-(+)6c] | > 1000 |  | 
6 | COc1cc(CNC(=O)NCc2ccc(C(F)(F)F)cc2)c(Br)cc1OC[C@@H](O)CO [(S)-(+)6d] | > 1000 |  | 
7 | COc1cc(CNC(=O)NCc2ccc(C(C)(C)C)cc2)c(Cl)cc1OCCO [Compound 6a, 1-[4-(2-hydroxyethoxy)-2-chloro-5-methoxybenzyl]-3-[4-(tert-butyl)-benzyl]urea] | 859 | 175 | 
8 | COc1cc(CNC(=O)NCc2ccc(C(F)(F)F)cc2)c(Cl)cc1OCCCO [Compound 6e] | > 1000 | > 1000 | 
9 | COc1cc(CNC(=O)NCc2ccc(C(C)(C)C)cc2)c(Cl)cc1OCCCO [Compound 6f] | 500 | 253 | 
10 | COc1cc(CNC(=O)NCc2ccc(C(F)(F)F)cc2)c(Cl)cc1OCCO [Compound 6g, 1-[4-(2-hydroxyethoxy)-2-chloro-5-methoxybenzyl]-3-[4-(trifluoromethyl)-benzyl]urea] | 164 | > 1000 | 
11 | COc1cc(CNC(=O)NCc2ccc(C(F)(F)F)cc2)c(Br)cc1OCCO [Compound 6h, 1-[4-(2-Hydroxyethoxy)-2-bromo-5-methoxybenzyl]-3-[4-(trifluoromethyl)-benzyl]urea] | 119 | 150 | 
12 | COc1cc(CNC(=O)NCc2ccc(C(F)(F)F)cc2)c(-c2ccccc2)cc1OCC(O)CO (stereo not shown) [Compound 6i, 1-[4-(2,3-dihydroxypropoxy)-2-phenyl-5-methoxybenzyl]-3-[4-(trifluoromethyl)-benzyl]urea] | > 1000 | 273 | 
13 | COc1cc(CNC(=O)NCc2ccc(C(F)(F)F)cc2)c(-c2cccnc2)cc1OCC(O)CO (stereo not shown) [Compound 6l, 1-[4-(2,3-dihydroxypropoxy)-2-(pyridin-3-yl)-5-methoxybenzyl]-3-[4-(trifluoromethyl)-benzyl]urea] | > 1000 | 172 | 
14 | COc1cc(CNC(=O)NCc2ccc(C(F)(F)F)cc2)c(-c2ccc(Cl)cc2)cc1OC[C@H](O)CO [Compound 6m, 1-[4-(2,3-dihydroxypropoxy)-2-(4-chloro)phenyl-5-methoxybenzyl]-3-[4-(trifluoromethyl)-benzyl]urea] |  | 117 | melting point: 174 °C
15 | O=C(Nc1ccccc1Br)N[C@@H]1CCN(c2ccc(C(F)(F)F)cn2)C1 [SB-705498, reference compound] |  |  | Pharmacokinetics in Rat Oral t1/2 [4]: 180 ^Ref. 8 min; IC50 [1]: 20300 nM
